ChEMBL document CHEMBL3992504 (Eur J Med Chem, 2017)

Key:
[1] = target: ALK tyrosine kinase receptor (Homo sapiens) (UniProt Q9UM73)
Description: Inhibition of EML4 fused ALK in human NCI-H3122 cells assessed as cell growth inhibition measured after 72 hrs by SRB assay

[2] = target: ALK tyrosine kinase receptor (Homo sapiens) (UniProt Q9UM73); remark: listed apart in the source
Description: Inhibition of EML4 fused ALK (unknown origin) expressed in mouse BA/F3 cells assessed as cell growth inhibition measured after 72 hrs by SRB assay

[3] = Inhibition of ALK T1151-L1152 insT mutant (unknown origin) using peptide as substrate measured after 30 mins by fluorescence assay; set-up: species or system Homo sapiens
[4] = Tmax in rat at 10 mg/kg administered via oral gavage by LC/MS/MS analysis; type: ADME, organism-based; conditions: in vivo
[5] = Half life in rat at 10 mg/kg administered via oral gavage by LC/MS/MS analysis; type: ADME, organism-based; conditions: in vivo
[6] = AUCt in rat at 10 mg/kg administered via oral gavage by LC/MS/MS analysis; type: ADME, organism-based; conditions: in vivo
[7] = AUC (infinity) in rat at 10 mg/kg administered via oral gavage by LC/MS/MS analysis; type: ADME, organism-based; set-up: dose 10 mg/kg, time infinity, route oral; conditions: in vivo
Mus musculus = test: Toxicity in BALB/c nu/nu mouse xenografted with human NCI-H3122 cells assessed as change in body weight at 50 mg/kg administered via oral gavage for 14 days; type: organism-based; conditions: in vivo, 336 h
[8] = target: ALK tyrosine kinase receptor (Homo sapiens, UniProt Q9UM73, G1202R); test: Inhibition of ALK G1202R mutant (unknown origin) using peptide as substrate measured after 30 mins by fluorescence assay
[9] = target: ALK tyrosine kinase receptor (Homo sapiens, UniProt Q9UM73, G1269A); test: Inhibition of ALK G1269A mutant (unknown origin) using peptide as substrate measured after 30 mins by fluorescence assay
[10] = target: ALK tyrosine kinase receptor (Homo sapiens, UniProt Q9UM73, F1174L); test: Inhibition of ALK F1174L mutant (unknown origin) using peptide as substrate measured after 30 mins by fluorescence assay
[11] = target: ALK tyrosine kinase receptor (Homo sapiens, UniProt Q9UM73, C1156Y); test: Inhibition of ALK C1156Y mutant (unknown origin) using peptide as substrate measured after 30 mins by fluorescence assay
[12] = Cmax in rat at 10 mg/kg administered via oral gavage by LC/MS/MS analysis; type: ADME, organism-based; set-up: dose 10 mg/kg, route oral; conditions: in vivo

Chain of ALK tyrosine kinase receptor (Homo sapiens) (Q9UM73 19-1620 limits assumed): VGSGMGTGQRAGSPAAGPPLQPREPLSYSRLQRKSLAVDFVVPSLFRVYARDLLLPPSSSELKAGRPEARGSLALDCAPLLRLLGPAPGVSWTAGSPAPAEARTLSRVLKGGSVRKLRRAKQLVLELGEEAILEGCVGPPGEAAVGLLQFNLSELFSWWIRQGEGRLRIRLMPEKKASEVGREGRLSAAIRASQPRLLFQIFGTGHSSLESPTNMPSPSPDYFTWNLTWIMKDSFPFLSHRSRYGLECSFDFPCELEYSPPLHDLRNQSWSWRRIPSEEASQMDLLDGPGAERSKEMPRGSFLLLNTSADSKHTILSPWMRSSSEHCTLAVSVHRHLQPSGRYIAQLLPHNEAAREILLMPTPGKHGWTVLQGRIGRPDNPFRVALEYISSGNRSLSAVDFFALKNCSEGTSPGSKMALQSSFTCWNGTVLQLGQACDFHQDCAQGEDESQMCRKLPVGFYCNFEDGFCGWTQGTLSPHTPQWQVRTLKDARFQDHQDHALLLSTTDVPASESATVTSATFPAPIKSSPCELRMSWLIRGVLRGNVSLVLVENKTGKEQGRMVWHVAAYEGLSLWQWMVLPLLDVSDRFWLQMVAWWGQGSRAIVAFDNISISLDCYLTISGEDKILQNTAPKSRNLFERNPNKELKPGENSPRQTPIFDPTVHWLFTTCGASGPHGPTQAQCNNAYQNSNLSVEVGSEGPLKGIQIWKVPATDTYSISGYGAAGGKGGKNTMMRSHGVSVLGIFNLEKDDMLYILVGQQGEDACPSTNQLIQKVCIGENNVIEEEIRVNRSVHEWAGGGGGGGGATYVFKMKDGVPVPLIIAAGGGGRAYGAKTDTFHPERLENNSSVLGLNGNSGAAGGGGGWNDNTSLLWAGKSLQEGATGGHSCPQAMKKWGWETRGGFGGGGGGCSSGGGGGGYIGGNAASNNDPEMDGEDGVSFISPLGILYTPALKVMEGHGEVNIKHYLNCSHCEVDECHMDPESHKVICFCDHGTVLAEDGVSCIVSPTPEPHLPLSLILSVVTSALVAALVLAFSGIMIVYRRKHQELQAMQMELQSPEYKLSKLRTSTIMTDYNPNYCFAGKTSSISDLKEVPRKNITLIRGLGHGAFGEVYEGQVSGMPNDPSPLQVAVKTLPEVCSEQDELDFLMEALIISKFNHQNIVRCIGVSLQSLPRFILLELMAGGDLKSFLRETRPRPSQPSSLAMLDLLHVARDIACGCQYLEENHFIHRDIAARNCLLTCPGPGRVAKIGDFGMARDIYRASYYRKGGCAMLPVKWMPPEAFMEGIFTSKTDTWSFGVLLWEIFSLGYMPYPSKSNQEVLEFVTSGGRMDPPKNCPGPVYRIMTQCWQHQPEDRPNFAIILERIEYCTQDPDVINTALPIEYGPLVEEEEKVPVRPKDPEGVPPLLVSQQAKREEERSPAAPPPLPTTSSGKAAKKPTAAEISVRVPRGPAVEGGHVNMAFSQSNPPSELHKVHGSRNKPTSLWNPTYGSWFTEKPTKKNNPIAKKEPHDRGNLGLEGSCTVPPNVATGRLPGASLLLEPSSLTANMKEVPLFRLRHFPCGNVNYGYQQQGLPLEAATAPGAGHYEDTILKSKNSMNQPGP
Chain of ALK tyrosine kinase receptor (Homo sapiens, UniProt Q9UM73, G1269A) (Q9UM73 19-1620 G1269A limits assumed): as the sequence (Q9UM73 19-1620 limits assumed) above, with G1251A counted along it
Chain of ALK tyrosine kinase receptor (Homo sapiens, UniProt Q9UM73, C1156Y) (Q9UM73 19-1620 C1156Y limits assumed): as the sequence (Q9UM73 19-1620 limits assumed) above, with C1138Y counted along it
Chain of ALK tyrosine kinase receptor (Homo sapiens, UniProt Q9UM73, F1174L) (Q9UM73 19-1620 F1174L limits assumed): as the sequence (Q9UM73 19-1620 limits assumed) above, with F1156L counted along it
Chain of ALK tyrosine kinase receptor (Homo sapiens, UniProt Q9UM73, G1202R) (Q9UM73 19-1620 G1202R limits assumed): as the sequence (Q9UM73 19-1620 limits assumed) above, with G1184R counted along it

SMILES | CC50 [1] | CC50 [2] | further results
CNC(C)(C)c1cc(OC)c(Nc2ncc(Cl)c(Nc3ccccc3S(=O)(=O)C(C)C)n2)cc1C | 29 nM | 15 nM | 
CNCc1cc(OC)c(Nc2ncc(Cl)c(Nc3ccccc3S(=O)(=O)C(C)C)n2)cc1C | 25 nM | 15 nM | 
CNCCc1cc(OC)c(Nc2ncc(Cl)c(Nc3ccccc3S(=O)(=O)C(C)C)n2)cc1C | 20 nM | 13 nM | 
COc1cc(C(C)(C)N(C)C)c(C)cc1Nc1ncc(Cl)c(Nc2ccccc2S(=O)(=O)C(C)C)n1 | 35 nM | 20 nM | 
COc1cc(C(C)(C)C#N)c(C)cc1Nc1ncc(Cl)c(Nc2ccccc2S(=O)(=O)C(C)C)n1 | 250 nM | 250 nM | 
COc1cc(CCN)c(C)cc1Nc1ncc(Cl)c(Nc2ccccc2S(=O)(=O)C(C)C)n1 | 60 nM | 68 nM | 
COc1cc(CC#N)c(C)cc1Nc1ncc(Cl)c(Nc2ccccc2S(=O)(=O)C(C)C)n1 | 74 nM | 61 nM | 
CNCC(C)(C)c1cc(OC)c(Nc2ncc(Cl)c(Nc3ccccc3S(=O)(=O)C(C)C)n2)cc1C | 41 nM | 19 nM | 
COc1cc(CCNC=O)c(C)cc1Nc1ncc(Cl)c(Nc2ccccc2S(=O)(=O)C(C)C)n1 | 68 nM | 60 nM | 
COc1cc(C(C)(C)CN)c(C)cc1Nc1ncc(Cl)c(Nc2ccccc2S(=O)(=O)C(C)C)n1 | 53 nM | 36 nM | 
Cc1cc(Nc2ncc(Cl)c(Nc3ccccc3S(=O)(=O)C(C)C)n2)c(OC(C)C)cc1C1CCNCC1 [CERITINIB] |  |  | IC50 [3]: 0.63 nM; Tmax [4]: 7.33 h; half-life [5]: 10.3 h; AUC(0-t) [6]: 1380 ng·h/mL; AUC(0-inf) [7]: 2650 ng·h/mL; Activity (Mus musculus): Non-Toxic
COc1cc(C(C)(C)CNC=O)c(C)cc1Nc1ncc(Cl)c(Nc2ccccc2S(=O)(=O)C(C)C)n1 | 63 nM | 38 nM | 
COc1cc(CN(C)C)c(C)cc1Nc1ncc(Cl)c(Nc2ccccc2S(=O)(=O)C(C)C)n1 | 37 nM | 21 nM | 
COc1cc(CCN(C)C)c(C)cc1Nc1ncc(Cl)c(Nc2ccccc2S(=O)(=O)C(C)C)n1 | 13 nM | 10 nM | IC50 [8]: 1.8 nM; IC50 [9]: 0.4 nM; IC50 [3]: 0.63 nM; IC50 [10]: 0.56 nM; IC50 [11]: 1.1 nM; Tmax [4]: 4 h; Cmax [12]: 263 ng/mL; half-life [5]: 7.48 h; AUC(0-t) [6]: 3750 ng·h/mL; AUC(0-inf) [7]: 4250 ng·h/mL; Activity (Mus musculus): Non-Toxic
COc1cc(C(C)(C)NC=O)c(C)cc1Nc1ncc(Cl)c(Nc2ccccc2S(=O)(=O)C(C)C)n1 | 52 nM | 24 nM | 
COc1cc(C(C)(C)N)c(C)cc1Nc1ncc(Cl)c(Nc2ccccc2S(=O)(=O)C(C)C)n1 | 12 nM | 12 nM | 
COc1cc(CNC=O)c(C)cc1Nc1ncc(Cl)c(Nc2ccccc2S(=O)(=O)C(C)C)n1 |  | 15 nM | 
COc1cc(C(C)(C)CN(C)C)c(C)cc1Nc1ncc(Cl)c(Nc2ccccc2S(=O)(=O)C(C)C)n1 | 26 nM | 14 nM | 
